Measured values from patent US4711879A, “Acylated sugar derivatives, processes for their manufacture, and their use” (Ciba-Geigy Corporation, priority 1984, dated 1987).

Tests used:
viruses = experiment: prophylaxis and treatment of virus infections in animals; format: in vivo, mice or guinea pigs; conditions: tests on animals
Text: In these animal tests, animals, such as mice or guinea pigs, are infected with the most varied types of viruses at a dose that is lethal to all or the great majority of the untreated (control) animals, for example LD80-90, and the course of the infection is observed in the untreated control animals in comparison with animals treated with one of the above-mentioned compounds or a salt thereof before, simultaneously with or after infection.
These compounds of the formula I are effective in as low a dosage range as from 0.0001 mg/kg to 0.1 mg/kg in the above-mentioned test in mice.

[1] = test for pyrogenity in rabbits (European Pharmacopoeia); format: in vivo; conditions: 5 mg/kg i.v.
Description: The test for pyrogenity can be carried out in rabbits in accordance with the instructions given in the European Pharmacopoeia, Volume 2, pages 56 to 59 (1971). According to this test, for example N-propionyl- desmethylmuramyl-L-alanyl-D-isoglutaminyl-L-alanine-3-{2-[2-(2,6-dichlorophenylamino)-phenyl]-acetylamino}-2-hydroxypropylamide is not pyrogenic at a dose of 5 mg/kg i.v.

Row | pyrogenity [1] | Molecule | suitability for prophylaxis and treatment of virus infections (viruses)
1 |  | (1α,β),4,6-tri-O-acetyl-N-propionyldesmethylmuramyl-L-alanyl-D- isoglutaminyl-L-alanine-3-[d-2-(6-methoxy-2-naphthyl]-propionylamino]-2-acetoxypropylamide [Example 21] | outstandingly suitable for the prophylaxis and treatment of virus infections
2 | not pyrogenic | CCC(=O)N(C1O[C@H](CO)[C@@H](O)[C@H](OCC(=O)O)[C@H]1N)[C@@H](C)C(=O)N[C@H](CCC(=O)N[C@@H](C)C(=O)NCC(O)CNC(=O)Cc1ccccc1Nc1c(Cl)cccc1Cl)C(N)=O (stereo partly drawn) [Example 6, N-propionyldesmethylmuramyl-L-alanyl-D-isoglutaminyl-L-alanine-3-{2-[2-(2,6-dichlorophenylamino)-phenyl]acetylamino}-2-hydroxypropylamide] | 
